Reference: patent US20150105252A1, “SUBSTITUTED PYRAZOLES AS HERBICIDES” (E I DU PONT DE NEMOURS AND COMPANY, priority 2013, published 2015)

Key:
[1] = tested on: crabgrass, large; assay: Test A postemergence; type: in vivo, Digitaria sanguinalis
How it was run: (§1)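 Pre- and postemergence greenhouse test; loam+sand; cpd in non-phytotox. solvent/surfactant; post at 1–2 leaf, 2–10 cm; visual score ~10 d, 0 = none, 100 = complete control.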

[2] = tested on: corn; assay: Test A preemergence; type: in vivo, Zea mays; details: preemergence; for Corn plant response rating (0 to 100 scale): 125 g ai/ha, visual injury approx. 10 days after treatment; for Corn plant response rating: 500 g ai/ha, visual injury after approx. 10 days, 0 to 100 scale (0 no effect, 100 complete control)
How it was run: as §1

[3] = tested on: pigweed; assay: Test A preemergence; type: in vivo, Amaranthus retroflexus; details: preemergence; for Pigweed plant response rating (0 to 100 scale): 125 g ai/ha, visual injury approx. 10 days after treatment
How it was run: as §1

[4] = tested on: crabgrass, large; assay: Test A preemergence; type: in vivo, Digitaria sanguinalis; details: preemergence; for Crabgrass, Large plant response rating (0 to 100 scale): 125 g ai/ha, visual injury approx. 10 days after treatment; for Crabgrass, Large plant response rating: 500 g ai/ha, visual injury after approx. 10 days, 0 to 100 scale (0 no effect, 100 complete control)
How it was run: as §1

[5] = tested on: pigweed; assay: Test A postemergence; type: in vivo, Amaranthus retroflexus; details: Postemergence
How it was run: as §1

[6] = tested on: corn; assay: Test C preemergence; type: in vivo, Zea mays
How it was run: (§2)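 In this greenhouse assay, seeded soil (loam plus sand) or emerged seedlings in peat-vermiculite medium were treated with formulated compound. Roughly two weeks later (13–15 days), each species was scored visually relative to controls, from 0 for no effect to 100 for complete control.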

[7] = tested on: barnyardgrass; assay: Test A preemergence; type: in vivo, Echinochloa crus-galli; details: preemergence; for Barnyardgrass plant response rating (0 to 100 scale, 0 is no effect, 100 is complete control): 125 g ai/ha, visual injury approx. 10 days after treatment; for Barnyardgrass plant response rating: 500 g ai/ha, visual injury after approx. 10 days, 0 to 100 scale (0 no effect, 100 complete control)
How it was run: as §1

[8] = tested on: velvetleaf; assay: Test A preemergence; type: in vivo, Abutilon theophrasti; details: preemergence; for Velvetleaf plant response rating (0 to 100 scale): 125 g ai/ha, visual injury approx. 10 days after treatment
How it was run: as §1

[9] = tested on: rice; assay: Test B flood; type: in vivo, Oryza sativa; details: 250 g ai/ha, visual rating on 0 to 100 scale (0 no effect, 100 complete control), 13 to 15 days
How it was run: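 Two-leaf-stage plants, pots flooded (3 cm above soil) and treated through the water, which stayed at that depth. After 13–15 days in greenhouse conditions, visual assessment versus controls: 0 is no effect, 100 complete control, dash means no result.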

[10] = tested on: blackgrass; assay: Test C preemergence; type: in vivo, Alopecurus myosuroides; details: preemergence; for Plant response rating, Blackgrass: 125 g ai/ha, scale 0 to 100, 0 = no effect, 100 = complete control
How it was run: as §2

[11] = tested on: barnyardgrass; assay: Test A postemergence; type: in vivo, Echinochloa crus-galli
How it was run: as §1

[12] = tested on: wheat; assay: Test C preemergence; type: in vivo, Triticum aestivum
How it was run: as §2

[13] = tested on: oilseed rape; assay: Test C preemergence; type: in vivo, Brassica napus
How it was run: as §2

[14] = tested on: velvetleaf; assay: Test A postemergence; type: in vivo, Abutilon theophrasti; details: Postemergence
How it was run: as §1

[15] = tested on: morningglory; assay: Test A preemergence; type: in vivo, Ipomoea spp.; details: preemergence; for Morningglory plant response rating (0 to 100 scale): 125 g ai/ha, visual injury approx. 10 days after treatment
How it was run: as §1

[16] = Postemergence, 500 g ai/ha, 0 to 100 scale (0 no effect, 100 complete control)
[17] = postemergence, 125 g ai/ha, about 10 days, visual rating on 0 to 100 scale (0 no effect, 100 complete control)
[18] = 500 g ai/ha, visual injury after approx. 10 days, 0 to 100 scale (0 no effect, 100 complete control)
[19] = 125 g ai/ha, 0 to 100 scale, 0 no effect, 100 complete control
[20] = 500 g ai/ha, 0 to 100 scale (0 no effect, 100 complete control)
[21] = preemergence, 31 g ai/ha, visual rating, scale 0 to 100 (0 no effect, 100 complete control), 13 to 15 days
[22] = preemergence, 62 g ai/ha, scale 0 to 100 (0 no effect, 100 complete control), 13 to 15 days
[23] = preemergence, 125 g ai/ha, 13 to 15 days, scale 0 to 100, 0 = no effect, 100 = complete control
[24] = preemergence, 250 g ai/ha, scale 0 to 100, 0 is no effect, 100 is complete control
[25] = 31 g ai/ha, visual rating, scale 0 to 100 (0 no effect, 100 complete control), 13 to 15 days
[26] = 62 g ai/ha, scale 0 to 100 (0 no effect, 100 complete control), 13 to 15 days
[27] = 250 g ai/ha, scale 0 to 100, 0 is no effect, 100 is complete control
[28] = Postemergence, 125 g ai/ha, 0 to 100 scale, 0 no effect, 100 complete control
[29] = Preemergence, rate head not shown (block before 16 g ai/ha), scale 0 to 100

CCc1cc(C(=O)NC2CC2)nn1Cc1ccnc(OCC(F)(F)F)c1 [Compound 200]
Crabgrass, Large plant response rating [1, 16]: 100
Crabgrass, Large plant response rating [1, 17]: 100
Corn plant response rating (0 to 100 scale) [2]: 60
Corn plant response rating [2]: 90
Pigweed plant response rating (0 to 100 scale) [3]: 100
Pigweed plant response rating [3, 18]: 100
Crabgrass, Large plant response rating (0 to 100 scale) [4]: 100
Crabgrass, Large plant response rating [4]: 100
Pigweed plant response rating [5, 19]: 100
Pigweed plant response rating [5, 20]: 100
Corn plant response rating [6, 21]: 0
Corn plant response rating [6, 22]: 15
Plant response rating, Corn [6, 23]: 35
Corn plant response rating [6, 24]: 80
Barnyardgrass plant response rating (0 to 100 scale, 0 is no effect, 100 is complete control) [7]: 90
Barnyardgrass plant response rating [7]: 100
Velvetleaf plant response rating (0 to 100 scale) [8]: 20
Velvetleaf plant response rating [8, 18]: 100
Plant response rating, Rice [9]: 0
Blackgrass plant response rating [10, 25]: 50
Blackgrass plant response rating [10, 26]: 80
Plant response rating, Blackgrass ([10]; 13 to 15 days): 90
Blackgrass plant response rating [10, 27]: 90
Barnyardgrass plant response rating [11, 16]: 100
Barnyardgrass plant response rating [11, 17]: 90
Wheat plant response rating [12, 21]: 0
Wheat plant response rating [12, 22]: 15
Plant response rating, Wheat [12, 23]: 45
Wheat plant response rating [12, 24]: 75
Oilseed Rape plant response rating [13, 21]: 60
Oilseed Rape plant response rating [13, 22]: 95
Plant response rating, Oilseed Rape [13, 23]: 98
Oilseed Rape plant response rating [13, 24]: 98
Velvetleaf plant response rating [14, 19]: 80
Velvetleaf plant response rating [14, 20]: 90
Morningglory plant response rating (0 to 100 scale) [15]: 40
Morningglory plant response rating [15, 18]: 100

CCc1cc(C(=O)NC2CC2)nn1Cc1cc(C(F)(F)C(F)(F)F)nn1C [Compound 226]
Crabgrass, Large plant response rating [1, 28]: 70
Crabgrass, Large plant response rating [1, 16]: 90
Corn plant response rating (0 to 100 scale) [2]: 30
Corn plant response rating [2]: 50
Pigweed plant response rating (0 to 100 scale) [3]: 100
Crabgrass, Large plant response rating (0 to 100 scale) [4]: 100
Crabgrass, Large plant response rating [4]: 100
Pigweed plant response rating [5, 19]: 100
Pigweed plant response rating [5, 20]: 100
Plant response rating, Corn ([6]; Preemergence, rate head not shown (block before 16 g ai/ha), scale 0 to 100, 100 is complete control): 10
Corn plant response rating [6, 22]: 15
Plant response rating, Corn [6, 23]: 30
Corn plant response rating [6, 24]: 70
Barnyardgrass plant response rating (0 to 100 scale, 0 is no effect, 100 is complete control) [7]: 80
Barnyardgrass plant response rating [7]: 100
Velvetleaf plant response rating (0 to 100 scale) [8]: 60
Plant response rating, Rice [9]: 30
Blackgrass plant response rating [10, 25]: 60
Blackgrass plant response rating [10, 26]: 85
Plant response rating, Blackgrass ([10]; 13 to 15 days): 70
Blackgrass plant response rating [10, 27]: 90
Barnyardgrass plant response rating [11, 28]: 60
Barnyardgrass plant response rating [11, 16]: 90
Plant response rating, Wheat [12, 29]: 15
Wheat plant response rating [12, 22]: 0
Plant response rating, Wheat [12, 23]: 0
Wheat plant response rating [12, 24]: 10
Plant response rating, Oilseed Rape [13, 29]: 30
Oilseed Rape plant response rating [13, 22]: 85
Plant response rating, Oilseed Rape [13, 23]: 100
Oilseed Rape plant response rating [13, 24]: 95
Velvetleaf plant response rating [14, 19]: 50
Velvetleaf plant response rating [14, 20]: 90
Morningglory plant response rating (0 to 100 scale) [15]: 100
